Source: patent US8674103B2, “Lyotropic liquid crystal systems based on aromatic tetracarboxylic bisbenzoimidazole derivatives and methods for making” (Nitto Denko Corporation, priority 2009, dated 2014)

Experiment: Measurement of dichroic ratios of coated films by polarized absorbance spectra
Type: physicochemical
Experimental: Gardner Co. Inc.) at a linear velocity of 25 mm/s. The resulting film thickness was approximately 0.2 μm. The process was conducted at room temperature (˜20° C.) and relative humidity of 65% after the film was dried under the same condition. […] The dichroic ratio […] was equal to about 23 at about 500 nm. […] Gardner Co. Inc.) at a linear velocity of 25 mm/s. The resulting film thickness was approximately 200 nm. The process was conducted at room temperature (˜20° C.) and relative humidity of 65% after the film was dried under the same condition. The film was characterized by absorbance spectra measured on a spectrophotometer in a wavelength range from 380 to 780 nm using a light beam polarized along the direction of the film application (Apar) and the direction perpendicular to that (Aper).

Q: For O=C(NCCOCCOCCCS(=O)(=O)O)c1ccc2c(c1)nc1c3ccc4c5ccc6c7c(ccc(c8ccc(c(=O)n21)c3c84)c57)c(=O)n1c2cc(C(=O)NCCOCCOCCCS(=O)(=O)O)ccc2nc61 [Compound 1], which “dichroic ratio Kd=log(Apar)/log(Aper)” value (Sample 1: 12 wt % solution titrated with triethylamine to pH 7, film approx. 0.2 μm, at about 500 nm) is on record?
A: The value was “about 23”.

Q: What about the λmax (Table 1, LLC chromophores) of the same compound?
A: The λmax was 500 nm.

Q: And the Dichroic ratio (Table 1, at λmax)?
A: The Dichroic ratio was 23.

Q: Which “dichroic ratio (Kd)” value (Sample 2: 8 wt % solution titrated with LiOH to pH 7, film approx. 0.2, at about 500 nm) does the source give for O=C(NCCOCCS(=O)(=O)O)c1ccc2c(c1)nc1c3ccc4c5ccc6c7c(ccc(c8ccc(c(=O)n21)c3c84)c57)c(=O)n1c2cc(C(=O)NCCOCCS(=O)(=O)O)ccc2nc61 [Compound 2] here?
A: Its value is “about 11”.

Q: Which “dichroic ratio (Kd)” value (Sample 3: 15 wt % solution titrated with LiOH to pH 7, film approx. 0.2 μm, at about 500 nm) does the source give for O=C(NCCN(CCCS(=O)(=O)O)CCCS(=O)(=O)O)c1ccc2c(c1)nc1c3ccc4c5ccc6c7c(ccc(c8ccc(c(=O)n21)c3c84)c57)c(=O)n1c2cc(C(=O)NCCN(CCCS(=O)(=O)O)CCCS(=O)(=O)O)ccc2nc61 [Compound 3] here?
A: The value was “about 17”.

Q: With O=C(NCCS(=O)(=O)[O-])c1ccc2nc3c4ccc5c(=O)n6c7cc(C(=O)NCCS(=O)(=O)[O-])ccc7nc6c6ccc(c(=O)n3c2c1)c4c56.[K+].[K+] [Compound 7] as the compound, how does the “dichroic ratio (Kd)” value (Sample 6: 8 wt % solution titrated with KOH to pH 7, film approx. 0.2, at about 450 nm) read?
A: Its value is “about 8”.

Q: With O=C(NCCCS(=O)(=O)[O-])c1ccc2nc3n(c2c1)Cc1ccc2c4c1c-3ccc4c(=O)n1c3cc(C(=O)NCCCS(=O)(=O)[O-])ccc3nc21.[Li+].[Li+] [Compound 8] as the compound, how does the “dichroic ratio (Kd)” value (Sample 7: 8 wt % solution titrated with LiOH to pH 7, film approx. 0.2 μm, at about 450 nm) read?
A: The value was “about 10”.

Q: Which “dichroic ratio (Kd)” value (Sample 11: 25 wt % solution in water, film approx. 200 nm, at about 470 nm) does the source give for O=C(NCCN1CCCC1)c1ccc2nc3c4ccc5c(=O)n6c7cc(C(=O)NCCN8CCCC8)ccc7nc6c6ccc(c(=O)n3c2c1)c4c56 [Compound 17d] here?
A: Its value is “about 4”.
